Positions of bridges follow the written chain, without caps; N, C: chain ends. Residues, ends and D or L forms follow the SMILES beside them. A value given as a limit tells only on which side of the number the result lay.

For orientation: Hill coefficient means a measure of the steepness of the concentration-response curve.

For one data set, the target named is T1, human Kv10.1 (Homo sapiens, UniProt O95259).
T1 construct: expressed in transfected cells; host or cells: Xenopus laevis oocytes injected with cRNA (pSGEM clone, T7 transcription)
T1 sequence (O95259 1-989): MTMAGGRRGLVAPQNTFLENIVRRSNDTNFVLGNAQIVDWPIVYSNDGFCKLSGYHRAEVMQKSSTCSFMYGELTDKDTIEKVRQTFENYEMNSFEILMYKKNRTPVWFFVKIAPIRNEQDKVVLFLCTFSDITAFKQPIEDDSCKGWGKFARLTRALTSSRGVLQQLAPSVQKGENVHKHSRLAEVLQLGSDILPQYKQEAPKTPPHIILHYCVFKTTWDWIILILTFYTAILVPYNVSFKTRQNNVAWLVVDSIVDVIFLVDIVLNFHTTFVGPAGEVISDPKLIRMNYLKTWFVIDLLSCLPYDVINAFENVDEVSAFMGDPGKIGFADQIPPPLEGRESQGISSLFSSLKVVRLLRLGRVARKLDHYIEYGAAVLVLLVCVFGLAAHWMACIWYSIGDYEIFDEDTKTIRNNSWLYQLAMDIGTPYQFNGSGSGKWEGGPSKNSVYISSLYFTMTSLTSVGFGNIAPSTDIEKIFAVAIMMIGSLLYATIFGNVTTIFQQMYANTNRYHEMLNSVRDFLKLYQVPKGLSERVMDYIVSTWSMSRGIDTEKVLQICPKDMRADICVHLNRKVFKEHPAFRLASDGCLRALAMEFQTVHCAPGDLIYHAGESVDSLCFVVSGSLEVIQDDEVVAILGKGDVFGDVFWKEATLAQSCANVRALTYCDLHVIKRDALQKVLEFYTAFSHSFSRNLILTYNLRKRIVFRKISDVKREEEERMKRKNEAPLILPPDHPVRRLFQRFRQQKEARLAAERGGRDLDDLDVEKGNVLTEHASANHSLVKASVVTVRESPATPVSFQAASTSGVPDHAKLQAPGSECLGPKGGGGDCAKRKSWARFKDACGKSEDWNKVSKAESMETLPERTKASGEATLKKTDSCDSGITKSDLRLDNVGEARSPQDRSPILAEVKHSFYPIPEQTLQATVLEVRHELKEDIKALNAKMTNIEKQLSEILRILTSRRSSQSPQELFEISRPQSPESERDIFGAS
Nature of the data set: cell-based.

A further data set concerns the target T2, human Kv1.6 (Homo sapiens, UniProt P17658).
T2 construct: expressed in transfected cells; host or cells: Xenopus laevis oocytes injected with cRNA (pSGEM clone, T7 transcription)
As to the kind of experiment: cell-based. Type of data set: cell-based.

A further data set deals with Kv10.1 potassium channel. In kind it is cell-based, human.
Data set [1] concerns the target T3, human Kv11.1 (Homo sapiens, UniProt Q12809).
Data set [2] deals with T3, human Kv11.1. Nature of the data set: in vitro. Particulars: pH 7.2.

T2 sequence (P17658 whole entry): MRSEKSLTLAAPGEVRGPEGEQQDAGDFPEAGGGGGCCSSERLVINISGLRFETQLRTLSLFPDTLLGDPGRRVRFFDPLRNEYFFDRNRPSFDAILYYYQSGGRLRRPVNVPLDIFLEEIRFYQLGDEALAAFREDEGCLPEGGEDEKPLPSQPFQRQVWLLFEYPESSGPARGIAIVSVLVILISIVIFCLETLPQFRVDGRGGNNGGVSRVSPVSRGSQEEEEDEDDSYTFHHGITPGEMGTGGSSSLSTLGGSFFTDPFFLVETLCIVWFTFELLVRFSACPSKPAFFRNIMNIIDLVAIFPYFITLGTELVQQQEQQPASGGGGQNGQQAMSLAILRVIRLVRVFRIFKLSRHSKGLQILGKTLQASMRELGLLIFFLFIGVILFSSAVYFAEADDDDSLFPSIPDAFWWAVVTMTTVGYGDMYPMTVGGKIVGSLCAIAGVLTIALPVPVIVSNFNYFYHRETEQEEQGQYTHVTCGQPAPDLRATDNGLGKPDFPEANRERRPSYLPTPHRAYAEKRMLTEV
T3 sequence (Q12809 whole entry): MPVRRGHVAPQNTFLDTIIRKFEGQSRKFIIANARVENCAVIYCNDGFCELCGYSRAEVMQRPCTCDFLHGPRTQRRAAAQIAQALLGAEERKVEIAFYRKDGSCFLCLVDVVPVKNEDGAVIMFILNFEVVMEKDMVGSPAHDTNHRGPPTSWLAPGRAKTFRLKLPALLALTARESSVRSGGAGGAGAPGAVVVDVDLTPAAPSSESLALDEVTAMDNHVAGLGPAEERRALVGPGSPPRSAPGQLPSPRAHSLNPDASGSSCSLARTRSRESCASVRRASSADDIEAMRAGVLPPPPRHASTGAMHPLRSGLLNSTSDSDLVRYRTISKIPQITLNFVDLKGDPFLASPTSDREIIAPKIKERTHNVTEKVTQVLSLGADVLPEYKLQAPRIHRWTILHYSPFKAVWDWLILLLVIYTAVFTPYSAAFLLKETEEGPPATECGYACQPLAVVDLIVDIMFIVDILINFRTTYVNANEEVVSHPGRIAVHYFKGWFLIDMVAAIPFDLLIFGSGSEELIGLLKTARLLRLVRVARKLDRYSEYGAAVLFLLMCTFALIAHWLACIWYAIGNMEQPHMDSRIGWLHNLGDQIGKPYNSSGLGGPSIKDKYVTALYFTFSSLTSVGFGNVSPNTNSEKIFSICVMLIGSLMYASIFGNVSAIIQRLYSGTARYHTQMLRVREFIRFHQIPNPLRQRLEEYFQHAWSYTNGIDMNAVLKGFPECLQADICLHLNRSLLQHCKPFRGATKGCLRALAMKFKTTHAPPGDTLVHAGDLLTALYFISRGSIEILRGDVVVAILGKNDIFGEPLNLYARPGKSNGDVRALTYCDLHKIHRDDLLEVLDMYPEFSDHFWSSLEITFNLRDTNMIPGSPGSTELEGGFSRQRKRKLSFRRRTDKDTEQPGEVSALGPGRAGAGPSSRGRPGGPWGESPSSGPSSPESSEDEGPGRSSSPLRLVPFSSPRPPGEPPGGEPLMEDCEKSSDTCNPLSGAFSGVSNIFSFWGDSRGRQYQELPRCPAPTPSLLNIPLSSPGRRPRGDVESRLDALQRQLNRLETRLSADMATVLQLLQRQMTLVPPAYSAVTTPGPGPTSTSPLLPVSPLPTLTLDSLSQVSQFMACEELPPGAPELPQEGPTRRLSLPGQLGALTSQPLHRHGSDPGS

In the case of `CC[C@H](C)[C@H](NC(=O)[C@@H]1CSSC[C@@H]2NC(=O)[C@H](C(C)C)NC(=O)[C@H](CC(C)C)NC(=O)CNC(=O)[C@H](CC(C)C)NC(=O)CNC(=O)[C@@H]3CCCN3C(=O)[C@H](CC(C)C)NC(=O)CNC(=O)[C@@H]3CSSC[C@H](NC(=O)[C@H](C)NC(=O)CNC(=O)[C@H](CCCNC(=N)N)NC(=O)[C@H](CSSC[C@H](NC(=O)CN)C(=O)NCC(=O)N[C@@H](C(C)C)C(=O)N[C@@H](CC(=O)O)C(=O)NCC(=O)N[C@@H](CCC(N)=O)C(=O)N[C@@H](Cc4ccccc4)C(=O)N3)NC2=O)C(=O)N[C@@H](Cc2ccccc2)C(=O)N[C@@H](CC(C)C)C(=O)N[C@@H](C(C)C)C(=O)N1)C(=O)N[C@@H](Cc1ccc(O)cc1)C(=O)N[C@H](C(=O)N1CCC[C@H]1C(=O)O)[C@@H](C)CC` [κO-SrVIA] (H-GCGVDGQFCGLPGLGLVCCRGACFLVCIYIP-OH; disulfide 2-19, 9-23, 18-27), the Hill coefficient on human Kv10.1 is on record as 1.86 ± 0.25; at human Kv1.6, 3.35 ± 0.44; at human Kv11.1 [1], 2.85 ± 0.46. In addition, the inhibition at 0.4 µM on human Kv10.1 (read-out: inhibitory activity) and against human Kv11.1 [2] was 10% throughout. In addition, the “effect on Kv1.6” value on human Kv1.6 is listed as “no effect”. For the same molecule, at human Kv1.6, the inhibition at 4 µM is < 50%. For the same molecule, the “inhibitory activity on the Kv10.1 channel” value in the data set with Kv10.1 potassium channel is “the only fraction that had inhibitory activity on the Kv10.1 channel”.

The values above are taken from publication PMC10380377 (International Journal of Molecular Sciences, 2023).
